Measured values: patent publication US8445008B2, “Reduction of infection associated with medical device” (Medtronic, Inc., priority 2008, dated 2013)
Converted amounts (≈) assume the structure as drawn.

Legend:
S. aureus = test: Minimum inhibitory concentration against the S. aureus strain used in the studies; type: cell-based; conditions: Staphylococcus aureus; strain of S. aureus used in the studies
[1] = Solubility in extraction/HPLC solvents; type: physicochemical

For CO[C@H]1/C=C/O[C@@]2(C)Oc3c(C)c(O)c4c(O)c(c(/C=N/N5CCN(C)CC5)c(O)c4c3C2=O)NC(=O)/C(C)=C\C=C\[C@H](C)[C@H](O)[C@@H](C)[C@@H](O)[C@@H](C)[C@H](OC(C)=O)[C@@H]1C [rifampin], the MIC (S. aureus) was 0.06 µg/mL (≈ 0.0729 µM) and the “solubility in methanol and THF/ethanol 4:1” value [1] was “good solubility”.
